Test results: US20040242870A1, “Antiviral methods and compounds” (priority 2000, published 2004)
Read-outs that look alike come from different tables or passages of the source.

What was measured:
HIV-1 = test: HeLa CD4 LTR β-gal/HL2/3 HIV-1 fusion assay; format: cell-based; details: fusion assay
From the text: This assay uses the HeLa CD4 LTR β-gal and HL2-3 cells available from the AIDS Research and Reference Reagent Repository. The HL2/3 are derived from HeLa cells and engineered to express HIV gp120 on their cell surface and Tat protein in their cytoplasma. Thus following gp 120/CD4/coreceptor-mediated fusion; cytoplasmic mixing results in the HL2/3 cell-derived Tat trans-activation of the β-galactosidase reporter. […] Twenty-four h prior to initiation of the assay cells were trypsinized, counted and 5×10^3 cells placed in a 0.2 cm well in media without selection antibiotics. To initiate the fusion assay HeLa CD4 LTR β-gal (5×10^3 cells per 0.2 cm well) were incubated with compound for 1 h at 37° C. HL2/3 cells (5×10^3) were added to the 0.2 cm well and the incubation continued for 48 h. At 48 h the wells were washed 1 time with PBS and β-galactosidase enzyme expression determined by chemiluminescence per manufacturers instructions (Tropix Gal-screen™, Tropix, Bedford, Mass.). Compound toxicity was monitored on sister plates using MTS dye reduction.

PBMCs = test: Cell cycle analysis of PBMCs by flow cytometry; format: cell-based, Human
Protocol: Flow cytometry studies were carried out on PHA/IL-2 induced PBMCs treated for 6 days with the various test compounds. Prior to flow cytometry the PBMCs were washed, counted and 1×10^6 cells resuspended in PBS and stained for CD4 or CD8 surface markers using anti-CD4.PE or CD8.PE (both from PharMingen) for 30 min at 4° C. The PBMC were then washed, fixed (Cytofix) and permeabilized (Cytoperm) followed by staining for apoptosis-related DNA damage. Initial experiments used the BrdU Flow Kit from PharMigen (2354KK). This kit with the appropriate software should have yielded percent apoptosis along with the number of cells in each phase of the cell cycle. However, we were not successful with this kit and subsequently used the data to look at only the distribution in the cell cycle of the PBMCs following drug treatment. We were successful in detecting apoptosis in PBMCs with the PharMingen APO-BRDU™ kit (6576KK). Using this kit, we were not able to co-stain for CD4 and CD8 due to the fluorescent tags used in the APO-BRDU™ kit. For both kits, manufacturers instructions were followed for staining and analysis of the samples. Following the appropriate staining protocol the cells were analyzed using a Becton Dickinson (Bedford, Mass.) FACSSort
Experiments were conducted using flow cytometry to assess the effect of the IMG compounds and cannabidiol on induction of apoptosis. Briefly, compound-treated PBMCs were assayed for apoptosis using a BrdU methodology. Table 6 summarizes the effects of the IMG Compounds on cell cycle and cell viability by Trypan Blue Dye exclusion. Table 7 reduces the changes in the cell cycle to a ratio based upon the percent of cells in G2-G1. G2-G1 cells represent transition cells that are in either G2 or G1, that cannot be distinguished based upon DNA content by flow cytometry. […] This ratio cannot be used as a quantitative factor to measure fold-increases or decreases between population, but rather to access trends in the cell cycle.

HeLa CD4 LTR β-gal cells = test: Compound toxicity in attachment assay (MTS dye reduction, sister plates); format: cell-based; details: read-out: TC50 (the source's name)
Protocol: At assay termination the assay plates were stained with the soluble tetrazolium-based dye MTS (CellTiter96® Reagent Promega) to determine cell viability and quantify compound toxicity. MTS is metabolized by the mitochondria enzymes of metabolically active cells to a soluble formazan product, allowing the rapid quantitative analysis cell viability and compound cytotoxicity. […] At termination of the assay 20 μL of MTS reagent was added per well and incubated for 4 h at 37° C. Adhesive plate sealers were used in place of the lids, the sealed plate was inverted several times to mix the soluble formazan product and the plate was read spectrophotometrically at 490 nm with a Molecular Devices Vmax plate reader.
The attachment assay was performed with the HeLa CD4 LTR , β-gal cells available from the AIDS Research and Reference Reagent Repository. […] HeLa CD4 LTR β-gal cells express cell surface CD4 and contain an LTR β-galactosidase reporter construct. Upon infection either the Tat protein incorporated into the virion or new Tat produced following virus integration and transcription trans-activates the LTR β-gal reporter, leading to expression of the β-galactosidase enzyme. HeLa CD4 LTR β-gal cells are routinely cultured with the required selection antibiotics and screened for mycoplasma contamination. Twenty-four h prior to initiation of the assay cells were trypsinized, counted and 1×10^4 cells placed in a 0.2 cm well in media without selection antibiotics. Media was removed at 24 h and compound in media placed on the cells and incubated for 15 to 30 min at 37° C. A known titer of virus was then added to the wells and the incubation continued for 1 h. At the end of the incubation the wells were washed 6 times with media and the culture continued for 48 h. At 48 h the wells were washed one time with PBS and β-galactosidase enzyme expression determined by chemiluminescence per manufacturers instructions (Tropix Gal-screen™, Tropix, Bedford, Mass.). Compound toxicity was monitored on sister plates using MTS dye reduction.

With `C=C(C)[C@@H]1CCC(C)=C[C@H]1c1c(O)cc(CCCCC)cc1O` [Cannabidiol, reference compound] the “Comments: suppression of β-galactosidase activity” value (HIV-1) was “Suppression of β-galactosidase”, the “% 7-AAD positive per cell cycle phase G0-G1” value (PBMCs; 1 μM, HIV +) was 94% and the “% 7-AAD positive per cell cycle phase G2-G1” value (PBMCs; 1 μM, HIV +) was 2%. For the same compound, the “% 7-AAD positive per cell cycle phase G2-M” value (PBMCs; 1 μM, HIV +) was 5.7%, the “% of cells in cell cycle phase” value (PBMCs; 1 μM, HIV +) was 0% and the “% 7-AAD positive per cell cycle phase G0-G1” value (PBMCs; 1 μM, HIV −) was 91%. For the same compound, the “% 7-AAD positive per cell cycle phase G2-G1” value (PBMCs; 1 μM, HIV −) was 2%, the “% 7-AAD positive per cell cycle phase G2-M” value (PBMCs; 1 μM, HIV −) was 9.2% and the “% of cells in cell cycle phase” value (PBMCs; 1 μM, HIV −) was 0%. For the same compound, the “% 7-AAD positive per cell cycle phase G0-G1” value (PBMCs; 25 μM, HIV +) was 96%, the “% 7-AAD positive per cell cycle phase G2-G1” value (PBMCs; 25 μM, HIV +) was 2% and the “% 7-AAD positive per cell cycle phase G2-M” value (PBMCs; 25 μM, HIV +) was 0%. The “% of cells in cell cycle phase” value (PBMCs; 25 μM, HIV +) was 4.2%, the “% 7-AAD positive per cell cycle phase G0-G1” value (PBMCs; 25 μM, HIV −) was 96.4% and the “% 7-AAD positive per cell cycle phase G2-G1” value (PBMCs; 25 μM, HIV −) was 2%. The “% 7-AAD positive per cell cycle phase G2-M” value (PBMCs; 25 μM, HIV −) was 0.05%, the “% of cells in cell cycle phase” value (PBMCs; 25 μM, HIV −) was 3.6% and the “% 7-AAD positive per cell cycle phase G0-G1” value (PBMCs; 35 μM, HIV +) was 98%. The “% 7-AAD positive per cell cycle phase G2-G1” value (PBMCs; 35 μM, HIV +) was 2%, the “% 7-AAD positive per cell cycle phase G2-M” value (PBMCs; 35 μM, HIV +) was 0% and the “% of cells in cell cycle phase” value (PBMCs; 35 μM, HIV +) was 2.6%. The “% 7-AAD positive per cell cycle phase G0-G1” value (PBMCs; 35 μM, HIV −) was 95.5%, the “% 7-AAD positive per cell cycle phase G2-G1” value (PBMCs; 35 μM, HIV −) was 2% and the “% 7-AAD positive per cell cycle phase G2-M” value (PBMCs; 35 μM, HIV −) was 0%. The “% of cells in cell cycle phase” value (PBMCs; 35 μM, HIV −) was 4.5%.
In the case of `COc1cc(C(C)(C)CCCC(C)C)cc(OC)c1OC` [IG-07, 1-(1,1,5Trimethylhexyl)-3,4,5-trimethoxybenzene], the “% 7-AAD positive per cell cycle phase G0-G1” value (PBMCs; 5 μM, HIV +) is reported as 89%, the “% 7-AAD positive per cell cycle phase G2-G1” value (PBMCs; 5 μM, HIV +) is reported as 2% and the “% 7-AAD positive per cell cycle phase G2-M” value (PBMCs; 5 μM, HIV +) is reported as 10%. For the same compound, the “% of cells in cell cycle phase” value (PBMCs; 5 μM, HIV +) was 0%, the “% 7-AAD positive per cell cycle phase G0-G1” value (PBMCs; 5 μM, HIV −) was 89% and the “% 7-AAD positive per cell cycle phase G2-G1” value (PBMCs; 5 μM, HIV −) was 2%. The “% 7-AAD positive per cell cycle phase G2-M” value (PBMCs; 5 μM, HIV −) was 6.9%, the “% of cells in cell cycle phase” value (PBMCs; 5 μM, HIV −) was 0% and the “% 7-AAD positive per cell cycle phase G0-G1” value (PBMCs; 100 μM, HIV +) was 95%. For the same compound, the “% 7-AAD positive per cell cycle phase G2-G1” value (PBMCs; 100 μM, HIV +) was 2%, the “% 7-AAD positive per cell cycle phase G2-M” value (PBMCs; 100 μM, HIV +) was 3.1% and the “% of cells in cell cycle phase” value (PBMCs; 100 μM, HIV +) was 1.7%. For the same compound, the “% 7-AAD positive per cell cycle phase G0-G1” value (PBMCs; 100 μM, HIV −) was 94%, the “% 7-AAD positive per cell cycle phase G2-G1” value (PBMCs; 100 μM, HIV −) was 2% and the “% 7-AAD positive per cell cycle phase G2-M” value (PBMCs; 100 μM, HIV −) was 0.2%. For the same compound, the “% of cells in cell cycle phase” value (PBMCs; 100 μM, HIV −) was 6%.
With `CC(C)=CCCC1(C)CCc2c(O)cc(C(C)(C)CCCC(C)C)cc2O1` (stereo not drawn) [IG-08, 3,4-Dihydro-2-methyl-2-(4-methyl-3-pentenyl)-7-(1,1,5-trimethylhexyl)-2H-1-benzopyran-5-ol] the CC50 (HeLa CD4 LTR β-gal cells; Experiment 1, pretreat 0 h) was > 50 µM, the CC50 (HeLa CD4 LTR β-gal cells; Experiment 1, pretreat 4 h) was > 50 µM and the CC50 (HeLa CD4 LTR β-gal cells; Experiment 1, pretreat 24 h) was > 50 µM. For the same compound, the CC50 (HeLa CD4 LTR β-gal cells; Experiment 2, pretreat 0 h) was > 50 µM, the CC50 (HeLa CD4 LTR β-gal cells; Experiment 2, pretreat 4 h) was 29 µM and the CC50 (HeLa CD4 LTR β-gal cells; Experiment 2, pretreat 24 h) was 12.2 µM. For the same compound, the “% 7-AAD positive per cell cycle phase G0-G1” value (PBMCs; 15 μM, HIV +) was 98%, the “% 7-AAD positive per cell cycle phase G2-G1” value (PBMCs; 15 μM, HIV +) was 2% and the “% 7-AAD positive per cell cycle phase G2-M” value (PBMCs; 15 μM, HIV +) was 0.08%. For the same compound, the “% of cells in cell cycle phase” value (PBMCs; 15 μM, HIV +) was 2.4%, the “% 7-AAD positive per cell cycle phase G0-G1” value (PBMCs; 15 μM, HIV −) was 91% and the “% 7-AAD positive per cell cycle phase G2-G1” value (PBMCs; 15 μM, HIV −) was 2%. For the same compound, the “% 7-AAD positive per cell cycle phase G2-M” value (PBMCs; 15 μM, HIV −) was 8.7%, the “% of cells in cell cycle phase” value (PBMCs; 15 μM, HIV −) was 0% and the “% 7-AAD positive per cell cycle phase G0-G1” value (PBMCs; 30 μM, HIV +) was 99%. For the same compound, the “% 7-AAD positive per cell cycle phase G2-G1” value (PBMCs; 30 μM, HIV +) was 2%, the “% 7-AAD positive per cell cycle phase G2-M” value (PBMCs; 30 μM, HIV +) was 0.15% and the “% of cells in cell cycle phase” value (PBMCs; 30 μM, HIV +) was 0.9%. For the same compound, the “% 7-AAD positive per cell cycle phase G0-G1” value (PBMCs; 30 μM, HIV −) was 98%, the “% 7-AAD positive per cell cycle phase G2-G1” value (PBMCs; 30 μM, HIV −) was 2% and the “% 7-AAD positive per cell cycle phase G2-M” value (PBMCs; 30 μM, HIV −) was 0.6%. The “% of cells in cell cycle phase” value (PBMCs; 30 μM, HIV −) was 1%.
